Source: patent publication EP4726029A1, “ADIPOCYTE GROWTH INHIBITOR” (Watanabe Oyster Laboratory Co., Ltd., priority 2023, dated 2024)

Assays:
Format in all cases: cell-based, mouse
3T3-L1 adipocytes [1] = test: Adipogenesis assay with inhibitors of intracellular signaling pathways (AdipoRed Assay Reagent)
Procedure: In yet another experiment, to search for the involvement of intracellular signaling factors, the culture fluid was substituted with a culture fluid containing DMEM, which contained 10% FBS and insulin (10 µg/ml), and a vehicle (1% ethanol) or DHMBA (1 or 10 µM) two days after the differentiation culture. The cells were cultured for another two days in a culture fluid containing signaling inhibitory factors, such as genistein (1 or 10 µM), Wortmannin (10 or 100 nM), PD98059 (1 or 10 µM), or Bay 11-7082 (1 or 10 nM). After the cell culture, the amount of intracellular lipid (triglyceride) formation was quantified using AdipoRed Assay Reagent (Lonza, Walkersville, MD, USA) [19 to 21]. Fluorescence was measured at an excitation of 485 nm and an emission of 570 nm using a 96-well plate reader (µQuant, Bio-Tek Instruments).

3T3-L1 adipocytes [2] = test: Adipogenesis assay (AdipoRed Assay Reagent); conditions: 1, 10, or 100 µM
Procedure: 3T3-L1 preadipocytes (10^4 cells/0.2 ml per well of a 96-well plate) were cultured for three days, at which point they reached sub-confluence, in DMEM containing 10% BCS and 1% P/S. After the sub-confluence (on day 0), the cells were cultured in a differentiation-inducing culture fluid containing 10% FBS, 1% P/S, 0.5 mM IBMX, and 1 µM dexamethasone with the inclusion of a vehicle (1% ethanol as the final concentration) or DHMBA (0.1, 1, 10, or 100 µM). Two days later, the culture fluid was replaced with a DMEM culture fluid containing insulin (10 µg/ml) without containing 10% FBS or DHMBA, and then, the cells were cultured for another two days.
In another experiment, the cells were cultured in a differentiation culture fluid not containing DHMBA on day 0 of differentiation-inducing culture. Two days later, the culture fluid was replaced with a DMEM culture fluid containing 10% FBS and insulin (10 µg/ml) that contained any of a vehicle (1% ethanol as the final concentration) and DHMBA (0.1, 1, 10, or 100 µM), and then, the cells were cultured for another two days.

3T3-L1 preadipocytes [3] = test: Cell proliferation assay (count of living cells, trypan blue)
Procedure: […] Furthermore, in an experiment to measure cell proliferation, 3T3-L1 preadipocytes (1 × 10^5/ml per well of a 24-well plate) were cultured for three days in a culture fluid containing a vehicle (1% ethanol as the final concentration) or DHMBA (0.1, 1, 10, 100, or 1000 µM).
(§1) After the culture, adhering cells were separated from each well by adding an aseptic solution containing 0.05% trypsin and EDTA (0.1 ml per well) in PBS (Thermo Fisher Scientific, Waltham, MA, USA) not containing Ca^2+/Mg^2+ and incubating the cells for two minutes. Afterward, 0.9 ml of DMEM containing 10% FBS was added to each well to prepare cell suspensions. In order to measure the number of living cells, a medium (0.1 ml) containing suspension cells was mixed with 0.1 ml of 0.5% trypan blue staining solution. The living cells were counted under a microscope (Olympus MTV-3) using a cell counter (Line Seiki H-102P, Tokyo, Japan) and a hemocytometer (Sigma-Aldrich, St. Louis, Missouri). Two counts were averaged in each measurement. The number of cells was shown as the number per well of a culture plate.

3T3-L1 preadipocytes [4] = test: Cell death assay (number of cells after sub-confluence); conditions: 1000 µM, another two days after sub-confluence (Fig. 2C)
Procedure: In an experiment to measure cell death, 3T3-L1 preadipocytes (1×10^5/ml per well of a 24-well plate) were cultured for three days in a DMEM culture fluid containing 10% BCS and 1% P/S. The cells that reached sub-confluence were cultured for another 48 hours in the presence of a vehicle (1% ethanol as the final concentration) or DHMBA (0.1, 1, 10, 100, or 1000 µM) to examine the variation in the number of cells.
as §1

Akt = test: Western blotting of protein level in adipocytes; conditions: DHMBA 10 µM, day 2 to 4 of differentiation (Fig. 7)
Procedure: (§2) 3T3-L1 preadipocytes (1×10^6 cells/100 mm dish used, in 10 ml of culture fluid) were cultured for three days, at which point they reached sub-confluence, in DMEM containing 10% BCS and 1% P/S. Then, the cells were cultured for two days in a DMEM differentiation culture fluid containing 10% FBS, 1% P/S, 0.5 mM IBMX, and 1 µM dexamethasone. […] After the culture, the culture dish was washed three times with cold PBS (10 ml) to eliminate floating cells and dead cells, and adhering cells were scraped using a cell lysis solution containing protease and protein phosphatase inhibitors (Roche Diagnostics, Indianapolis, IN, USA). Next, the cell lysates were centrifuged for 10 minutes at 17,000 × g at 4°C. The concentration of proteins in the supernatant was quantified using Bio-Rad Protein Assay Dye (Bio-Rad Laboratories, Inc., Hercules, CA, USA) with bovine serum albumin as a standard. The extracted protein samples were stored at -80°C until they were used.
(§3) As indicated in the previous invention, a sample of 40 micrograms of supernatant proteins per lane was separated by SDS polyacrylamide gel electrophoresis (SDS-PAGE, 12%) and transferred to a PVDF membrane. Specific antibodies for target proteins, such as PPARγ (C26H12) (catalog No. 2435, rabbit antibody), C/EBPα (catalog No. 2295, rabbit), phosphoinositide 3-kinase p110α (PI3K; catalog No. 4255), Akt (catalog No. 9272, rabbit antibody), mitogen-activated protein kinase (MAPK; catalog No. 4695, rabbit antibody), phosphorylated MAPK (catalog No. […]) 4370, rabbit antibody), mechanistic target of rapamycin (mTOR, catalog No. 4517, mouse antibody), NF-κB p65 (catalog No. 3034, rabbit antibody), and β-actin (catalog No. 3700, rabbit antibody), were obtained from Cell Signaling Technology (Danvers, MA, USA). The PVDF membrane was incubated overnight at 4°C using the above protein antibodies for immunoblotting.
(§4) After the incubation, the PVDF membrane was incubated at room temperature for 60 minutes in a horseradish peroxidase-conjugated secondary antibody (Santa Cruz Biotechnology, Inc., mouse sc-2005 or rabbit sc-2305; 1:1,000 dilution). Protein bands transferred to the PVDF membrane were detected on an X-ray film using a chemiluminescent substrate (catalog No. 34577, Thermo Scientific, Rockford, IL, USA). Four independent experiments were conducted for data, their films were scanned with an Epson Perfection 1660 photo scanner, and the bands were quantified using ImageJ2 software (National Institutes of Health, Bethesda, MD, USA).

PI3 kinase 100α = test: Western blotting of protein level in adipocytes; conditions: DHMBA 10 µM, day 2 to 4 of differentiation (Fig. 7)
Procedure: as §2, §3, §4

phosphorylated MAPK = test: Western blotting of protein level in adipocytes; conditions: DHMBA 10 µM, day 2 to 4 of differentiation (Fig. 7)
Procedure: as §2, §3, §4

MAPK = test: Western blotting of protein level in adipocytes; conditions: DHMBA 10 µM, day 2 to 4 of differentiation (Fig. 7)
Procedure: as §2, §3, §4

PPARγ = test: Western blotting of protein level in adipocytes; conditions: DHMBA 10 µM, day 2 to 4 of differentiation (Fig. 7)
Procedure: as §2, §3, §4

NF-κB p65 = test: Western blotting of protein level in adipocytes; conditions: DHMBA 10 µM, day 2 to 4 of differentiation (Fig. 7)
Procedure: as §2, §3, §4

mTOR = test: Western blotting of protein level in adipocytes; conditions: DHMBA 10 µM, day 2 to 4 of differentiation (Fig. 7)
Procedure: as §2, §3, §4

C/EBPα = test: Western blotting of protein level in adipocytes; conditions: DHMBA 10 µM, day 2 to 4 of differentiation (Fig. 7)
Procedure: as §2, §3, §4

3T3-L1 preadipocytes [5] = test: Number of cells in the differentiation process; conditions: 1 or 10 µM
Procedure: (§5) In order to understand the influence of DHMBA on the differentiation of 3T3-L1 preadipocytes, 3T3-L1 preadipocytes (5×10^4 cells/ml per well of a 24-well plate) were cultured for three days, at which point they reached sub-confluence, in 10% bovine calf serum (BCS). After the cells reached sub-confluence (on day 0), the culture fluid was changed to a DMEM differentiation-inducing culture fluid containing 10% FBS, 1% P/S, 0.5 mM IBMX, 1 µM dexamethasone, and insulin (10 µg/ml), and the cells were cultured for another two days. Two days later, to promote adipogenesis, the culture fluid was replaced with a fresh differentiation culture fluid of DMEM containing 10% FBS and insulin (10 µg/ml), and the cells were cultured for another two days.
First, to quantify the effect of DHMBA on the number of cells, a vehicle (1% ethanol as the final concentration) or DHMBA (1 or 10 µM) was added to the differentiation-inducing culture fluid on day 0 of differentiation starting culture or after two days. After zero to two days of the differentiation culture or after two to four days of the culture, the number of cells adhered to a culture dish was measured as described in the previous section.

3T3-L1 adipocytes [6] = test: Fat accumulation assay (Oil Red O staining); conditions: 0.1, 1, 10, or 100 µM
Procedure: as §5, with “Two days later, to promote adipogenesis, the culture fluid was replaced with a fresh differentiation culture fluid of DMEM containing 10% FBS and insulin (10 µg/ml), and the cells were cultured for another two days.” left out
In an additional experiment to understand the effect of DHMBA on the content of lipids in 3T3-L1 adipocytes, a vehicle (1% ethanol as the final concentration) or DHMBA (0.1, 1, 10, or 100 µM) was included in the differentiation-inducing culture fluid to culture the cells from day 0 of the differentiation-inducing culture to four days later. In order to quantify the lipid content (triglycerides) after the cell culture, the cells in the 24-well plate were gently washed twice with PBS and fixed with 4% formaldehyde dissolved in PBS for 30 minutes. […] Furthermore, in order to quantify the lipid content, the Oil Red stain was extracted with isopropanol. […] The eluate was used to measure the absorbance at 510 nm with a spectrophotometer (µQuant, Bio-Tek Instruments).

Cc1ccc(S(=O)(=O)C=CC#N)cc1 [Bay 11-7082, reference compound]
adipogenesis (3T3-L1 adipocytes [1]; Bay 11-7082 1 or 10 nM (Fig. 6D)): inhibited

COc1c(O)cc(CO)cc1O [DHMBA, 3,5-dihydroxy-4-methoxybenzyl alcohol]
adipogenesis (3T3-L1 adipocytes [2]; two to four days after the differentiation, late stage (Fig. 5C)): suppression | adipogenesis (3T3-L1 adipocytes [2]; zero to four days after the differentiation (Fig. 5A)): suppressed | adipogenesis (3T3-L1 adipocytes [2]; zero to two days after the differentiation (Fig. 5B)): suppression | Cell proliferation (3T3-L1 preadipocytes [3]; DHMBA 10 µM, culture for three to five days (Fig. 2A)): suppressed | Cell proliferation (3T3-L1 preadipocytes [3]; cultured for three days, concentrations ranging from 1 µM to 1000 µM (Fig. 2B)): suppressed | inhibition of adipogenesis (3T3-L1 adipocytes [1]; DHMBA 1 or 10 µM in the presence of Bay 11-7082 1 or 10 nM (Fig. 6D)): further enhanced | inhibition of adipogenesis (3T3-L1 adipocytes [1]; DHMBA 1 or 10 µM in the presence of PD98059 1 or 10 µM (Fig. 6C)): further enhanced | inhibition of adipogenesis (3T3-L1 adipocytes [1]; DHMBA 1 or 10 µM in the presence of Wortmannin 10 or 100 nM (Fig. 6B)): further enhanced | adipogenesis (3T3-L1 adipocytes [1]; DHMBA 1 or 10 µM in the presence of genistein (Fig. 6A)): inhibited | number of cells (cell death) (3T3-L1 preadipocytes [4]): reduced | level of Akt (Akt): reduction | level of PI3 kinase 100α (PI3 kinase 100α): reduction | level of phosphorylated MAPK (phosphorylated MAPK): reduction | level of MAPK (MAPK): reduction | level of PPARγ (PPARγ): reduced | level of NF-κB p65 (NF-κB p65): reduced | level of mTOR (mTOR): reduction | level of C/EBPα (C/EBPα): reduced | number of cells (3T3-L1 preadipocytes [5]; day 0 to 2 in culture fluid with differentiation-inducing factors (Fig. 3B)): not varied | number of cells (3T3-L1 preadipocytes [5]; day 2 to 4 in culture fluid containing insulin (Fig. 3C)): not varied | lipid accumulation (Oil Red O stained images) (3T3-L1 adipocytes [6]; on day 0 and after two days of differentiation culture (Fig. 4A)): reduced | lipid content in the cells (absorbance at 510 nm) (3T3-L1 adipocytes [6]; on day 0 and after two days of differentiation culture (Fig. 4B)): decrease

COc1cccc(-c2cc(=O)c3ccccc3o2)c1N [PD98059, reference compound]
adipogenesis (3T3-L1 adipocytes [1]; PD98059 1 or 10 µM (Fig. 6C)): inhibited

COC[C@H]1OC(=O)c2coc3c2[C@@]1(C)C1=C(C3=O)[C@@H]2CCC(=O)[C@@]2(C)C[C@H]1OC(C)=O [Wortmannin, reference compound]
adipogenesis (3T3-L1 adipocytes [1]): inhibited

O=c1c(-c2ccc(O)cc2)coc2cc(O)cc(O)c12 [genistein, reference compound]
lipogenesis (3T3-L1 adipocytes [1]; genistein 1 or 10 µM alone, two days from day 2 of differentiation (Fig. 6A)): not altered
